In the oligonucleotide strings, read from the 5' end, every base follows the letter of its sugar. An asterisk marks phosphorothioate; unmarked linkages are phosphodiester. Other units and linkages are bracketed, terminal groups are in braces. A string of capitals states the bases alone. d = 2'-deoxy (DNA)
test system: human meltrin α RNA; assay: Suppression of human meltrin α expression by antisense compound in RD cell (real time PCR); format: cell-based; details: 50 nM; RD cell; corrected by GAPDH
Description: First, RD cell (ATCC) was suspended in DMEM containing 10% fetal bovine serum (FBS, SIGMA), and the suspension was inoculated in 6 well culture plate at 2.5×10^5 cells/well/2 mL. After incubating overnight at 37° C. in the presence of 5% CO2, the cells were washed twice with serum-free DMEM, and Opti-MEM medium (GIBCO) was added at 800 μL/well.
Gene transfection reagent Lipofectin (Invitrogen) was diluted with Opti-MEM to 20 μg/mL, and the dilution was allowed to stand at room temperature for 30 minutes. Next, the antisense oligodeoxynucleotide synthesized as described above was heated at 90° C. for 3 minutes, and after quenching on ice, diluted with Opti-MEM to a concentration 10 times higher than the final concentration. Equal amounts of the Lipofectin in Opti-MEM and the antisense oligo DNA in Opti-MEM were mixed, and the mixture was incubated at room temperature for 15 minutes and added to 6 well plate at 200 μL/well.
The culture was incubated at 37° C. for 4 hours in the presence of 5% CO2, and the culture supernatant containing the Lipofectin was removed. The cells were washed twice with serum-free DMEM, and after adding 1 mL/well of Opti-MEM and incubating for 18 hours at 37° C. in the presence of 5% CO2, the cells were subjected to the measurement of the level of expression of meltrin α RNA.
After the washing, RNA was isolated from the cell by using RNA isolation kit (RNeasy Micro Kit, QIAGEN) according to the protocol of the kit, and RNA concentration was determined by measuring absorbance at a wavelength of 260 nm with a spectrophotometer (Nano prop, LMS Co., Ltd.) (1OD=40 μg/mL). After the quantitation, the RNA was prepared to a concentration of 0.1 μg/μL by using DEPC-treated water.
0.35 μg of the isolated RNA, and 3.5 μL of 10× TaqMan buffer, 7.7 μL of 25 mM MgCl2, 7.0 μL of 2.5 mM each dNTP Mix, 1.75 μL of 50 μM Random Hexamers, 0.7 μL of 20 U/μL RNase inhibitor, and 0.9 μL of 50 U/μL MultiScribe Reverse Transcriptase (all purchased from Applied Biosystems) were mixed, and water was added to make up the total volume to 35 μL. This solution was maintained at 25° C. for 10 minutes, at 48° C. for 30 minutes, and at 95° C. for 5 minutes, and reverse transcription was conducted to synthesize cDNA.
A solution in total volume of 20 μL containing 10 μL of TaqMan Universal PCR Master Mix, 0.4 μL of 10 μM TaqMan MGB Probe (sequence 5′FAM-caccgaaggacaatccca-MGB-3′: Applied Biosystems), 0.1 μL of 50 μM Forward primer (sequence ggaagccgccagattcct) for detecting meltrin α, 0.1 μL of 50 μM Reverse primer (sequence […]) for detecting meltrin α (all purchased from Sigma-Genosys), 5 μL of the cDNA solution of (3), and 4.4 μL of water was prepared, and after maintaining the solution at 50° C. for 2 minutes and at 95° C. for 10 minutes, PCR was conducted by repeating 40 cycles of 95° C. for 15 seconds and 60° C. for 1 minute in ABI Prism 7000.
The amount of the human meltrin α RNA was measured by conducting real time PCR by using the plasmid containing the cDNA coding for the human meltrin α for the template to generate the standard curve, and calculating RNA copy number of the meltrin α in each sample. The level of expression of GAPDH was also determined by using a primer and probe set for real time PCR of human GAPDH (Pre-Developed TaqMan Assay Reagents Human GAPDH (20×) (Cat# 4310884E, Applied Biosystems).
The results of the real time PCR of the meltrin α was corrected by the level of expression of the GAPDH to calculate the suppression rate. […]

Substance | suppression rate of expression, 50 nM
H144 + 17: gccagaggatctgcaggcag (GCCAGAGGATCTGCAGGCAG; antisense; DNA, all phosphorothioate, methylation of C not given here) | +++ (“+++” when the suppression rate was at least 70%)
H131 + 10: aggccttttccaaggtggcc (AGGCCTTTTCCAAGGTGGCC; antisense; DNA, all phosphorothioate, methylation of C not given here) | + (“+” when the suppression rate was at least 30%)
H130 + 10: gaggtgagcctgacagggtt (GAGGTGAGCCTGACAGGGTT; antisense; DNA, all phosphorothioate, methylation of C not given here) | + (“+” when the suppression rate was at least 30%)
H172: gcacagctgggggtagttgg (dG*dC*dA*dC*dA*dG*dC*dT*dG*dG*dG*dG*dG*dT*dA*dG*dT*dT*dG*dG; antisense) | + (“+” when the suppression rate was at least 30%)
H009: agccctcgcgcacggcccgc (AGCCCTCGCGCACGGCCCGC; antisense; DNA, all phosphorothioate, methylation of C not given here) | + (“+” when the suppression rate was at least 30%)
H143 + 5: ggggtttggcttacaggtcc (GGGGTTTGGCTTACAGGTCC; antisense; DNA, all phosphorothioate, methylation of C not given here) | ++ (“++” when the suppression rate was at least 50%)
H145 + 5: ttgttctggccagaggatct (dT*dT*dG*dT*dT*dC*dT*dG*dG*dC*dC*dA*dG*dA*dG*dG*dA*dT*dC*dT; antisense) | +++ (“+++” when the suppression rate was at least 70%)
H137 + 1: ggctgagggacattcaggcc (GGCTGAGGGACATTCAGGCC; antisense; DNA, all phosphorothioate, methylation of C not given here) | ++ (“++” when the suppression rate was at least 50%)
H130 + 5: gagcctgacagggttggaag (GAGCCTGACAGGGTTGGAAG; antisense; DNA, all phosphorothioate, methylation of C not given here) | ++ (“++” when the suppression rate was at least 50%)
H149: caggtctgaggggtgccagg (dC*dA*dG*dG*dT*dC*dT*dG*dA*dG*dG*dG*dG*dT*dG*dC*dC*dA*dG*dG; antisense) | + (“+” when the suppression rate was at least 30%)
H133 + 5: ccttcggtgggtaggaatct (CCTTCGGTGGGTAGGAATCT; antisense; DNA, all phosphorothioate, methylation of C not given here) | + (“+” when the suppression rate was at least 30%)

same assay, conditions: 200 nM; RD cell; corrected by GAPDH

Substance | suppression rate of expression, 200 nM
H001: gactaggaagagcgttagtg (GACTAGGAAGAGCGTTAGTG; antisense; DNA, all phosphorothioate, methylation of C not given here) | + (“+” when the suppression rate was at least 30%)
H177: gcctggacctgaagcccctt (dG*dC*dC*dT*dG*dG*dA*dC*dC*dT*dG*dA*dA*dG*dC*dC*dC*dC*dT*dT; antisense) | +++ (“+++” when the suppression rate was at least 70%)
H153: ctgttgaaaaaaggtgtcgg (dC*dT*dG*dT*dT*dG*dA*dA*dA*dA*dA*dA*dG*dG*dT*dG*dT*dC*dG*dG; antisense) | ++ (“++” when the suppression rate was at least 50%)
H181: gccagatttctcccaggtgt (dG*dC*dC*dA*dG*dA*dT*dT*dT*dC*dT*dC*dC*dC*dA*dG*dG*dT*dG*dT; antisense) | ++ (“++” when the suppression rate was at least 50%)
H240: acagatgcatgctatacgag (DNA dA*dC*dA*dG*dA*dT*dG*dC*dA*dT*dG*dC*dT*dA*dT*dA*dC*dG*dA*dG; antisense) | ++ (“++” when the suppression rate was at least 50%)
H077: ggcacacccccattcctttc (dG*dG*dC*dA*dC*dA*dC*dC*dC*dC*dC*dA*dT*dT*dC*dC*dT*dT*dT*dC) | + (“+” when the suppression rate was at least 30%)
H172: gcacagctgggggtagttgg (dG*dC*dA*dC*dA*dG*dC*dT*dG*dG*dG*dG*dG*dT*dA*dG*dT*dT*dG*dG; antisense) | +++ (“+++” when the suppression rate was at least 70%)
H009: agccctcgcgcacggcccgc (AGCCCTCGCGCACGGCCCGC; antisense; DNA, all phosphorothioate, methylation of C not given here) | +++ (“+++” when the suppression rate was at least 70%)
H048: cagctccacatacttagttg (CAGCTCCACATACTTAGTTG; antisense; DNA, all phosphorothioate, methylation of C not given here) | ++ (“++” when the suppression rate was at least 50%)
H123: caggatggtcaccagaattc (CAGGATGGTCACCAGAATTC; antisense; DNA, all phosphorothioate, methylation of C not given here) | + (“+” when the suppression rate was at least 30%)
H195: tgcctgggcagtaggtttct (dT*dG*dC*dC*dT*dG*dG*dG*dC*dA*dG*dT*dA*dG*dG*dT*dT*dT*dC*dT; antisense) | ++ (“++” when the suppression rate was at least 50%)
H090: ggcccctgtgcagaactctg (dG*dG*dC*dC*dC*dC*dT*dG*dT*dG*dC*dA*dG*dA*dA*dC*dT*dC*dT*dG; antisense) | ++ (“++” when the suppression rate was at least 50%)
H141: ggctggcaggggtctggcag (GGCTGGCAGGGGTCTGGCAG; antisense; DNA, all phosphorothioate, methylation of C not given here) | ++ (“++” when the suppression rate was at least 50%)
H049: cggttgtctgccacgatcac (dC*dG*dG*dT*dT*dG*dT*dC*dT*dG*dC*dC*dA*dC*dG*dA*dT*dC*dA*dC; antisense) | + (“+” when the suppression rate was at least 30%)
H111: acactttgtgcctgcaagca (dA*dC*dA*dC*dT*dT*dT*dG*dT*dG*dC*dC*dT*dG*dC*dA*dA*dG*dC*dA; antisense) | + (“+” when the suppression rate was at least 30%)
H033: gtgacccagaattaccgtgt (GTGACCCAGAATTACCGTGT; antisense; DNA, all phosphorothioate, methylation of C not given here) | + (“+” when the suppression rate was at least 30%)
H030: gtgggtttccgtgaaactgc (GTGGGTTTCCGTGAAACTGC; antisense; DNA, all phosphorothioate, methylation of C not given here) | + (“+” when the suppression rate was at least 30%)
H026: gtcgaatattcagcacttct (GTCGAATATTCAGCACTTCT; antisense; DNA, all phosphorothioate, methylation of C not given here) | + (“+” when the suppression rate was at least 30%)
H149: caggtctgaggggtgccagg (dC*dA*dG*dG*dT*dC*dT*dG*dA*dG*dG*dG*dG*dT*dG*dC*dC*dA*dG*dG; antisense) | +++ (“+++” when the suppression rate was at least 70%)
H043: gtgttgtgatgtgatccaca (GTGTTGTGATGTGATCCACA; antisense; DNA, all phosphorothioate, methylation of C not given here) | + (“+” when the suppression rate was at least 30%)

Reference: patent publication US20080292619A1, “Pharmaceutical Composition Containing Meltrin Antagonist” (MOCHIDA PHARMACEUTICAL CO., LTD., priority 2004, published 2008)
